# Results: PMC10449633 (Nature Chemical Biology, 2023)
# Where “and” joins values, the source holds several entries; their conditions need not be identical. Equal entries are not always repeated. Entries after “also recorded” stand apart in the source; their conditions may differ. Where two headings read alike, the source gives them in different places. Numbered stars: 1 amine (or outer) side, 2 acyl side, 3 side chain; on linkers, the order of the positions; unused ones are H or OH. Square brackets hold non-standard residues; d marks the D form. Peptide text beside a SMILES is read from it. ξ: configuration not given here. X1 = CN(C(Cc1cn(Cc2ccc(Br)cc2)c2ccccc12)C(=O)[*:2])[*:1]; ξAla(CF3) = NC(CC(F)(F)F)C(=O)O; X2 = N#CCCC(O[*:1])C(=O)[*:2]; NMeL = CN[CH](CC(C)C)C(=O)O; NMeA = CN[CH](C)C(=O)O
# Experiments:
# Sec61α S82P = Sec61α S82P (Canis lupus familiaris, UniProt P38377, S82P); test: Luciferase reporter assay in HEK293 cells expressing Sec61α S82P; parameters: remaining activity: dose or concentration left out as unconfirmed; conditions: HEK293, 24 h, read-out: luciferase reporter activity (% of no-drug control), S82P
# Sequence of Sec61α S82P (P60468 whole entry): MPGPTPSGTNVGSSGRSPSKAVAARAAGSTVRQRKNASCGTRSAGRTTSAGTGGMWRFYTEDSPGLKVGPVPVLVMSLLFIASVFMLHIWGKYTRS
# Sequence of Sec61α S82P (P38377 whole entry S82P): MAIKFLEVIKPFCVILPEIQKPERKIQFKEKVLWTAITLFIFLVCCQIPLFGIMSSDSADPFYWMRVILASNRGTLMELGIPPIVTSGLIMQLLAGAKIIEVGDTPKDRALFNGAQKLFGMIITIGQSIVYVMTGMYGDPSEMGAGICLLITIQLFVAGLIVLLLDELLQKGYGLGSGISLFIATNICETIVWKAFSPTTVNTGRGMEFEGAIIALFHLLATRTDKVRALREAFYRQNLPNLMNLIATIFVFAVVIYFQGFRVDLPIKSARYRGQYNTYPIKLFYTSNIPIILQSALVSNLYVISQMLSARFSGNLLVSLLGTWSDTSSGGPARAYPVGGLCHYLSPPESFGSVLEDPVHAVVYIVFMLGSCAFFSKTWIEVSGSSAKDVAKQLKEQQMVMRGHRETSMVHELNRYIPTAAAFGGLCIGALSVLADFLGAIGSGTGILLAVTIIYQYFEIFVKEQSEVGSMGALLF
# Sequence of Sec61α S82P (P60059 whole entry, further chain): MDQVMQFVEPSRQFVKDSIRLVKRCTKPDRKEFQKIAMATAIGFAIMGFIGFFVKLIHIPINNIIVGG
# Description: (§1) Data are mean values ± s.d. from n = 2 independent experiments.
# (§2) HEK293T cells (0.3 × 10^6) were seeded per well of a six-well plate and incubated at 37 °C in 5% CO2 for 24 h to adhere. Each of the two wells was transfected with 1 µg of plasmid encoding a luciferase with the signal peptide of either VCAM1 or pPL using PEI in a 5:1 ratio, after which cells were returned to the incubator for a further 24 h. Transfected cells were then resuspended following trypsinization, cell count estimated using a TC20 Automated Cell Counter (BioRad) and diluted to seed a 96-well flat-bottom plate with 1.6 × 10^4 cells per well. […] Cells were then incubated for a further 24 h, after which the luciferase-containing media were transferred to a clean 96-well plate and stored at −20 °C. Luciferase activity of the media was estimated using a Gaussia-GLOW Juice Luciferase Assay kit from PJK Biotech GmbH as per the manufacturer’s instructions. Luminescence was measured using an EnSpire Multimode plate reader (PerkinElmer). Background luminescence from media placed in a well with neither cells nor drug was subtracted from all values, and measurements were calculated as a percentage of luminescence intensity of a well expressing the appropriate luciferase construct in the absence of any drug. Curves were fitted, and IC50 values were calculated using GraphPad Prism 8.
# (§3) HEK293 Flp-In T-REx cells (Thermo Fisher Scientific, R78007) were cultured in Dulbecco’s modified Eagle’s medium (Gibco) supplemented with 10% FBS (Gibco) at 37 °C in a humidified 5% CO2 atmosphere. Approximately 0.3 µg of pOG44 and 1 µg of targeting construct plasmids were mixed in 250 µl of OptiMEM (Thermo Fisher Scientific, 51985-026). A total of 3 µl (3 µg) Lipofectamine3000 transfection reagent was then added to the DNA mix and incubated at room temperature for 20 min, and the whole mixture was added to the cells. Cells were exposed to 100 µg ml^−^1 hygromycin B (Invitrogen) and 10 µg ml^−^1 blasticidin for 3–4 weeks until the appearance of resistant colonies. Colonies were expanded into T75 flasks and induced with doxycycline (Sigma-Aldrich, D9891) at a concentration of 1–5 µg ml^−^1 for 48 h. Cells were collected, and total RNA was extracted followed by cDNA amplification and sequencing of Sec61 with gene-specific PCR primers to confirm. Cells were then used for the luciferase reporter assays as above.
# (§4) Data are mean values ± SD and are representative of n = 2 independent experiments.
# human PBMCs = conditions: concentrations up to 20 µM; PBMCs and splenocytes
# Sec61α Q294A = Sec61α Q294A (Canis lupus familiaris, UniProt P38377, Q294A); test: Luciferase reporter assay in HEK293 cells expressing Sec61α Q294A; parameters: remaining activity: dose or concentration left out as unconfirmed; conditions: HEK293, 24 h, read-out: luciferase reporter activity (% of no-drug control), Q294A
# Sequence of Sec61α Q294A (P60059 whole entry): as the sequence (P60059 whole entry, further chain) above
# Sequence of Sec61α Q294A (P38377 whole entry Q294A): as the sequence (P38377 whole entry S82P) above, with P82S, Q294A counted along it
# Sequence of Sec61α Q294A (P60468 whole entry, further chain): as the sequence (P60468 whole entry) above
# Description: as §1, §2
# WT canine Sec61 was cloned into pcDNA5/FRT/TO (Thermo Fisher Scientific), and point mutations were generated using PCR. All mutants were sequence verified. HEK293 Flp-In T-REx cells (Thermo Fisher Scientific, R78007) were cultured in Dulbecco’s modified Eagle’s medium (Gibco) supplemented with 10% FBS (Gibco) at 37 °C in a humidified 5% CO2 atmosphere. Approximately 0.3 µg of pOG44 and 1 µg of targeting construct plasmids were mixed in 250 µl of OptiMEM (Thermo Fisher Scientific, 51985-026). A total of 3 µl (3 µg) Lipofectamine3000 transfection reagent was then added to the DNA mix and incubated at room temperature for 20 min, and the whole mixture was added to the cells. Cells were exposed to 100 µg ml^−^1 hygromycin B (Invitrogen) and 10 µg ml^−^1 blasticidin for 3–4 weeks until the appearance of resistant colonies. Colonies were expanded into T75 flasks and induced with doxycycline (Sigma-Aldrich, D9891) at a concentration of 1–5 µg ml^−^1 for 48 h. Cells were collected, and total RNA was extracted followed by cDNA amplification and sequencing of Sec61 with gene-specific PCR primers to confirm. Cells were then used for the luciferase reporter assays as above.
# as §4
# [1] = system: human peripheral blood mononuclear cells (PBMCs); test: Cytokine secretion assay, stimulated human PBMCs (MSD U-PLEX); assay type: cell-based; conditions: for IC50: 24 h, tested 0.025–25,000 nM
# SARS-CoV-2 = conditions: Vero cells
# Sec61α T86M = Sec61α T86M (Canis lupus familiaris, UniProt P38377, T86M); test: Luciferase reporter assay in HEK293 cells expressing Sec61α T86M; conditions: HEK293, 24 h, read-out: luciferase reporter activity (% of no-drug control), T86M
# Sequence of Sec61α T86M (P60468 whole entry): as above
# Sequence of Sec61α T86M (P38377 whole entry T86M): as the sequence (P38377 whole entry S82P) above, with P82S, T86M counted along it
# Sequence of Sec61α T86M (P60059 whole entry, further chain): as the sequence (P60059 whole entry, further chain) above
# Description: as §1, §2, §3, §4
# [2] = system: collagen antibody-induced arthritis in BALB/c mice; test: Anticollagen antibody-induced arthritis model, clinical scores; assay type: in vivo, mouse
# Sec61α S305A = Sec61α S305A (Canis lupus familiaris, UniProt P38377, S305A); test: Luciferase reporter assay in HEK293 cells expressing Sec61α S305A; parameters: remaining activity: dose or concentration left out as unconfirmed; conditions: HEK293, 24 h, read-out: luciferase reporter activity (% of no-drug control), S305A
# Sequence of Sec61α S305A (P38377 whole entry S305A): as the sequence (P38377 whole entry S82P) above, with P82S, S305A counted along it
# Sequence of Sec61α S305A (P60059 whole entry, further chain): as the sequence (P60059 whole entry, further chain) above
# Sequence of Sec61α S305A (P60468 whole entry, further chain): as the sequence (P60468 whole entry) above
# Description: as §1, §2, §3, §4
# Sec61α = test: Photo-cotransin (CT7) photo-affinity labeling competition, LMNG-solubilized ER microsomes; assay type: binding, sheep; conditions: excess competitor, LMNG-solubilized ER membranes
# Excerpt: To understand the molecular basis of Sec61 inhibition by KZR-8445, we pursued structural investigations using single-particle cryo-EM. Our initial attempts to isolate cotransin-bound ribosome–Sec61 complexes with the commonly used detergent digitonin were not successful. Several other detergents were screened for retention of native-like cotransin binding by subjecting solubilized Sec61 to a cotransin photo-affinity labeling assay[15] (Extended Data Fig. 2a). This screen identified lauryl maltoside neopentyl glycol (LMNG), a lipid-mimetic detergent that permits maximal photo-cotransin binding, as indicated by specific crosslinking to the Sec61α subunit in LMNG-solubilized ER membranes.
# Sheep pancreatic ER microsomes (SRM) were isolated according to the method described earlier[48],[49]. […] The labeled proteins were analyzed by SDS–PAGE and in-gel fluorescence followed by Western blotting using anti-Sec61α and anti-RPL18 antibodies. […]
# Extended Data Fig. 2 Isolation and biochemical characterization of the inhibitor-bound ribosome-Sec61 (RNC) complexes. […] (c) Gel filtration profile of clarified detergent-solubilized sample fractions with measured absorbance at A260. […]
smiles,measurement,setting,value
CC(C)CC1NC(=O)C(Cc2cn(Cc3ccc(Br)cc3)c3ccccc23)N(C)C(=O)C(CC(F)(F)F)NC(=O)C(CC(C)C)N(C)C(=O)C(CC(F)(F)F)NC(=O)C(CCC#N)OC(=O)C(C)N(C)C1=O (centres unmarked) [KZR-8445] (cyclo([X1]L[NMeA][X2][ξAla(CF3)][NMeL][ξAla(CF3)]); configuration not given here),remaining activity at 0.00018303 µM,Sec61α S82P; Drug nM (log10) 0.18303,99%
same,remaining activity at 0.000660151 µM,Sec61α S82P; Drug nM (log10) 0.660151,80.3%
same,remaining activity at 0.00113727 µM,Sec61α S82P; Drug nM (log10) 1.13727,73.5%
same,remaining activity,Sec61α S82P; Drug nM (log10) 1.61439,47.5%
same,remaining activity,Sec61α S82P; Drug nM (log10) 2.09151,22.4%
same,remaining activity,Sec61α S82P; Drug nM (log10) 2.56864,10.1%
same,remaining activity,Sec61α S82P; Drug nM (log10) 3.04576,4.21%
same,remaining activity,Sec61α S82P; Drug nM (log10) 3.52288,2.82%
same,remaining activity at 0.004 µM,Sec61α S82P; Drug nM (log10) 4,3.25%
same,remaining activity at 0.00050805 µM,Sec61α S82P; Drug nM (log10) -0.29409,102%
same,effects on cell viability,human PBMCs,minimal effects
same,remaining activity at 0.00018303 µM,Sec61α Q294A; Drug nM (log10) 0.18303,80.7%
same,remaining activity at 0.000660151 µM,Sec61α Q294A; Drug nM (log10) 0.660151,67.2%
same,remaining activity at 0.00113727 µM,Sec61α Q294A; Drug nM (log10) 1.13727,44.1%
same,remaining activity,Sec61α Q294A; Drug nM (log10) 1.61439,22.4%
same,remaining activity,Sec61α Q294A; Drug nM (log10) 2.09151,11%
same,remaining activity,Sec61α Q294A; Drug nM (log10) 2.56864,4.26%
same,remaining activity,Sec61α Q294A; Drug nM (log10) 3.04576,2.2%
same,remaining activity,Sec61α Q294A; Drug nM (log10) 3.52288,1.85%
same,remaining activity at 0.004 µM,Sec61α Q294A; Drug nM (log10) 4,2.09%
same,remaining activity at 0.000508 µM,Sec61α Q294A; Drug nM (log10) -0.29409,89.6%
same,IC50,"[1]; Homo sapiens, PBMC, LPS-stimulation, read-out: IC50, IL-1β secretion",> 25000 nM
same,IC50,"[1]; Homo sapiens, PBMC, LPS-stimulation, read-out: IC50, IL-23 secretion",167 nM
same,IC50,"[1]; Homo sapiens, PBMC, anti-CD3/CD28-stimulation, read-out: IC50, GM-CSF secretion",189 nM
same,IC50,"[1]; Homo sapiens, PBMC, anti-CD3/CD28-stimulation, read-out: IC50, IL-2 secretion",42.2 nM
same,IC50,"[1]; Homo sapiens, PBMC, anti-CD3/CD28-stimulation, read-out: IC50, TNFα secretion",42.6 nM
same,IC50,"[1]; LPS-stimulation, read-out: IC50, IL-23 secretion",233 nM and 188 nM and 190 nM
same,"IC50s, secretion of six of seven tested cytokines",[1]; activated human PBMCs and mouse splenocytes,submicromolar
same,IC50,"[1]; anti-CD3/CD28-stimulation, read-out: IC50, GM-CSF secretion",185 nM and 222 nM and 212 nM
same,IC50,"[1]; anti-CD3/CD28-stimulation, read-out: IC50, IL-2 secretion",38.7 nM and 39 nM and 26.6 nM
same,IC50,"[1]; anti-CD3/CD28-stimulation, read-out: IC50, TNFα secretion",31.8 nM and 37.5 nM and 26.2 nM
same,secretion of IL-1β,[1]; not Sec61-dependent,unaffected
same,virus-induced cytotoxicity,SARS-CoV-2,blocked
same,remaining activity at 0.00018303 µM,Sec61α T86M; Drug nM (log10) 0.18303,84.6%
same,remaining activity at 0.000660151 µM,Sec61α T86M; Drug nM (log10) 0.660151,76%
same,remaining activity at 0.00113727 µM,Sec61α T86M; Drug nM (log10) 1.13727,53.5%
same,remaining activity,Sec61α T86M; Drug nM (log10) 1.61439,28.5%
same,remaining activity,Sec61α T86M; Drug nM (log10) 2.09151,12.1%
same,remaining activity,Sec61α T86M; Drug nM (log10) 2.56864,5.08%
same,remaining activity,Sec61α T86M; Drug nM (log10) 3.04576,2.62%
same,remaining activity,Sec61α T86M; Drug nM (log10) 3.52288,2.32%
same,remaining activity at 0.004 µM,Sec61α T86M; Drug nM (log10) 4,2.59%
same,"P versus vehicle (one-way ANOVA), disease progression",[2]; 10 mg kg−1 thrice weekly,0.01
same,"P versus vehicle (one-way ANOVA), disease progression",[2]; 20 mg kg−1 thrice weekly,< 0.0001
same,"P versus vehicle, disease progression",[2]; 20 mg kg−1 weekly,0.007
same,efficacy of weekly administration,[2]; 20 mg kg−1 weekly,effective
same,arthritis disease progression / clinical symptoms,[2]; IV thrice weekly after onset of disease,blocked disease progression in a dose-dependent manner; also recorded: ameliorated clinical arthritis symptoms
same,anti-inflammatory effect compared with dexamethasone,[2]; highest dose,stronger anti-inflammatory effect than the corticosteroid dexamethasone
same,remaining activity at 0.00018303 µM,Sec61α S305A; Drug nM (log10) 0.18303,82.1%
same,remaining activity at 0.000660151 µM,Sec61α S305A; Drug nM (log10) 0.660151,68.1%
same,remaining activity at 0.00113727 µM,Sec61α S305A; Drug nM (log10) 1.13727,47.4%
same,remaining activity,Sec61α S305A; Drug nM (log10) 1.61439,27.2%
same,remaining activity,Sec61α S305A; Drug nM (log10) 2.09151,13%
same,remaining activity,Sec61α S305A; Drug nM (log10) 2.56864,5.54%
same,remaining activity,Sec61α S305A; Drug nM (log10) 3.04576,3.19%
same,remaining activity,Sec61α S305A; Drug nM (log10) 3.52288,2.55%
same,remaining activity at 0.004 µM,Sec61α S305A; Drug nM (log10) 4,3.24%
same,remaining activity at 0.00050805 µM,Sec61α S305A; Drug nM (log10) -0.29409,89.3%
same,competition of photo-cotransin crosslinking to Sec61α,Sec61α,efficiently competed
